Source: patent publication US10112929B2, “Lactams as inhibitors of rock” (BRISTOL-MYERS SQUIBB COMPANY, priority 2015, dated 2018)

These compounds were tested against ROCK2 (Homo sapiens (Human), UniProt O75116) (assay: biochemical).
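Note: rho kinase enzyme reaction halted with EDTA, phospho- and non-phospho peptide separated for read-out, kinase activity inhibition derived across a dose-response series, DMSO under 2%.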

ROCK2, sequence (O75116 whole entry, species assumed): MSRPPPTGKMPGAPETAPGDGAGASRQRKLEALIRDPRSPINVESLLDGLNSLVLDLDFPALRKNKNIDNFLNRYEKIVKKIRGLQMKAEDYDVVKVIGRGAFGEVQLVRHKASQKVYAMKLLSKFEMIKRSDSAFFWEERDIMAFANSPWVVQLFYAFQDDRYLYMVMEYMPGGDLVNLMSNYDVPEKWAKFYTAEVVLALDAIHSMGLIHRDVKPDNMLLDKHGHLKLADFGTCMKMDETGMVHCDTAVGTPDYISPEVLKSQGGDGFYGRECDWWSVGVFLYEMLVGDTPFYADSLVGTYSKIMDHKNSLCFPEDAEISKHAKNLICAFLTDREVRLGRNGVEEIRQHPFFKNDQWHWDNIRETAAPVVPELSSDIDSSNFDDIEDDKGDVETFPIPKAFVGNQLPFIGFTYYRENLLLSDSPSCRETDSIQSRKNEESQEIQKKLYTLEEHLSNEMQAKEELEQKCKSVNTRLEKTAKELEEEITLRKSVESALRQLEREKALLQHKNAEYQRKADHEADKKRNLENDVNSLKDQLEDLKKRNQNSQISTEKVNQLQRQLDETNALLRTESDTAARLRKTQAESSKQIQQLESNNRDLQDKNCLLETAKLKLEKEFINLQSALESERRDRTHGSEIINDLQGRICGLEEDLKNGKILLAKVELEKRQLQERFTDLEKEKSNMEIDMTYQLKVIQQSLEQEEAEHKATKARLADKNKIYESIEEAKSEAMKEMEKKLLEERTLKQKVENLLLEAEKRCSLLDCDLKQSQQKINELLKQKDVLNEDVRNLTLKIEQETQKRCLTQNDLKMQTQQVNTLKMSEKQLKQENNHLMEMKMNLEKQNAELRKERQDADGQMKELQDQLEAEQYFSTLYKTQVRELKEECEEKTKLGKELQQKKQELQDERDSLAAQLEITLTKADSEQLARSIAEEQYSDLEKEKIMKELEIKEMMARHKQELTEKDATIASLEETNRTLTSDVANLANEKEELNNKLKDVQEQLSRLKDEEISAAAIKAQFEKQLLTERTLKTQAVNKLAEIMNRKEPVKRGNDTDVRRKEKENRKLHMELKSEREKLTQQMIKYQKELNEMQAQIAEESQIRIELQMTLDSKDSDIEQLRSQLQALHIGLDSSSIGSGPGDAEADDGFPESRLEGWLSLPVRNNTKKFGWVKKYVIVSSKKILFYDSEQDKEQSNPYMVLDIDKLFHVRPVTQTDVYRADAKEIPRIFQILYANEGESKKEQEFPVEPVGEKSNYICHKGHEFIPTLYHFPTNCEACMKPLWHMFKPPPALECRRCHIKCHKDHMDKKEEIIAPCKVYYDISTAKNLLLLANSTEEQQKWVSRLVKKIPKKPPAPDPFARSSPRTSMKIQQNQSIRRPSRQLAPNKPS

Structure (SMILES)	IC50 [nM]
Cc1cc(N2CCC(Nc3cccc(OCC4CC4)c3)C2=O)ncc1-c1cn[nH]c1 (single isomer, unassigned) [Example 206, 3-((3-(cyclopropylmethoxy)phenyl)amino)-1-(4-methyl-5-(1H-pyrazol-4-yl)pyridin-2-yl)pyrrolidin-2-one]	100 to 2200
COc1cc(NC2CCN(c3ccc(-c4cn[nH]c4)c(OC)n3)C2=O)ccc1F (single isomer, unassigned) [Example 207, 3-((4-fluoro-3-methoxyphenyl)amino)-1-(6-methoxy-5-(1H-pyrazol-4-yl)pyridin-2-yl)pyrrolidin-2-one]	< 10
COc1cc(NC2CCN(c3cc(C)c(-c4cn[nH]c4)cn3)C2=O)ccc1F (single isomer, unassigned) [Example 209, 3-((4-fluoro-3-methoxyphenyl)amino)-1-(4-methyl-5-(1H-pyrazol-4-yl)pyridin-2-yl)pyrrolidin-2-one]	100 to 2200
CCc1cc(N2CCC(Nc3ccc(F)c(OC)c3)C2=O)ncc1-c1cn[nH]c1 (single isomer, unassigned) [Example 210, 1-(4-ethyl-5-(1H-pyrazol-4-yl)pyridin-2-yl)-3-((4-fluoro-3-methoxyphenyl)amino) pyrrolidin-2-one]	100 to 2200
CCc1nc(N2CCC(Nc3ccc(F)c(OCC4CC4)c3)C2=O)ccc1-c1cn[nH]c1 (single isomer, unassigned) [Example 211, 3-((3-(cyclopropylmelhoxy)-4-fluorophenyl)amino)-1-(6-ethyl-5-(1H-pyrazol-4-yl)pyridin-2-yl)pyrrolidin-2-one]	10 to 100
CCc1nc(N2CCC(Nc3ccc(F)c(OCC4CC4)c3)C2=O)ccc1-c1cn[nH]c1 (single isomer, unassigned) [Example 212, 3-((3-(cyclopropylmelhoxy)-4-fluorophenyl)amino)-1-(6-ethyl-5-(1H-pyrazol-4-yl)pyridin-2-yl)pyrrolidin-2-one]	100 to 2200
COc1nc(N2CCC(Nc3ccc(F)c(OCC4CC4)c3)C2=O)ccc1-c1cn[nH]c1 (single isomer, unassigned) [Example 216, 3-((3-(cyclopropylmethoxy)-4-fluorophenyl)amino)-1-(6-methoxy-5-(1H-pyrazol-4-yl)pyridin-2-yl)pyrrolidin-2-one]	< 10
COc1nc(N2CCC(Nc3ccc(F)c(OCC4CC4)c3)C2=O)ccc1-c1cn[nH]c1 (single isomer, unassigned) [Example 217, 3-((3-(cyclopropylmethoxy)-4-fluorophenyl)amino)-1-(6-methoxy-5-(1H-pyrazol-4-yl)pyridin-2-yl)pyrrolidin-2-one]	10 to 100
COc1nc(N2CCC(N3CCOc4ccccc43)C2=O)ccc1-c1cn[nH]c1 (single isomer, unassigned) [Example 229, 3-(2H-benzo[b][1,4]oxazin-4(3H)-yl)-1-(6-methoxy-5-(1H-pyrazol-4-yl)pyridin-2-yl)pyrrolidin-2-one]	10 to 100
COc1nc(N2CCC(N3CCOc4ccccc43)C2=O)ccc1-c1cn[nH]c1 (single isomer, unassigned) [Example 230, 3-(2H-benzo[b][1,4]oxazin-4(3H)-yl)-1-(6-methoxy-5-(1H-pyrazol-4-yl)pyridin-2-yl)pyrrolidin-2-one]	< 10
CCc1cc(N2CCC(Nc3cc(F)cc(OC)c3)C2=O)ccc1-c1cn[nH]c1 (single isomer, unassigned) [Example 245, 1-(3-ethyl-4-(1H-pyrazol-4-yl)phenyl)-3-((3-fluoro-5-methoxyphenyl)amino) pyrrolidin-2-one]	10 to 100
CCc1cc(N2CCC(Nc3cc(F)cc(OC)c3)C2=O)ccc1-c1cn[nH]c1 (single isomer, unassigned) [Example 246, 1-(3-ethyl-4-(1H-pyrazol-4-yl)phenyl)-3-((3-fluoro-5-methoxyphenyl)amino) pyrrolidin-2-one]	< 10
CNc1nc(N2CCC(Nc3cc(F)cc(OC)c3)C2=O)ccc1-c1cn[nH]c1 (single isomer, unassigned) [Example 251, 3-((3-fluoro-5-methoxyphenyl)amino)-1-(6-(methylamino)-5-(1H-pyrazol-4-yl)pyridin-2-yl)pyrrolidin-2-one]	10 to 100
CNc1nc(N2CCC(Nc3cc(F)cc(OC)c3)C2=O)ccc1-c1cn[nH]c1 (single isomer, unassigned) [Example 252, 3-((3-fluoro-5-methoxyphenyl)amino)-1-(6-(methylamino)-5-(1H-pyrazol-4-yl)pyridin-2-yl)pyrrolidin-2-one]	< 10

More lines, now with the values ahead:

IC50 [nM]	Structure (SMILES)
10 to 100	Cc1nc(N2CCC(Nc3cccc(OC(F)F)c3)C2=O)ccc1-c1cn[nH]c1 (single isomer, unassigned) [Example 201, 3-((3-(difluoromethoxy)phenyl)amino)-1-(6-methyl-5-(1H-pyrazol-4-yl)pyridin-2-yl)pyrrolidin-2-one]
100 to 2200	CCc1cc(N2CCC(Nc3cccc(OC)c3)C2=O)ncc1-c1cn[nH]c1 (single isomer, unassigned) [Example 203, 1-(4-ethyl-5-(1H-pyrazol-4-yl)pyridin-2-yl)-3-((3-methoxyphenyl)amino) pyrrolidin-2-one]
< 10	COc1nc(N2CCC(Nc3cccc(OCC4CC4)c3)C2=O)ccc1-c1cn[nH]c1 (single isomer, unassigned) [Example 214, 3-((3-(cyclopropylmethoxy)phenyl)amino)-1-(6-methoxy-5-(1H-pyrazol-4-yl)pyridin-2-yl)pyrrolidin-2-one]
< 10	CCOc1cccc(NC2CCN(c3ccc(-c4cn[nH]c4)c(OC)n3)C2=O)c1 (single isomer, unassigned) [Example 218, 3-((3-ethoxyphenyl)amino)-1-(6-methoxy-5-(1H-pyrazol-4-yl)pyridin-2-yl)pyrrolidin-2-one]
< 10	COc1nc(N2CCC(Nc3cccc(OC(F)F)c3)C2=O)ccc1-c1cn[nH]c1 (single isomer, unassigned) [Example 220, 3-((3-(difluoromethoxy)phenyl)amino)-1-(6-methoxy-5-(1H-pyrazol-4-yl)pyridin-2-yl)pyrrolidin-2-one]
10 to 100	O=C1C(Nc2cccc(OC(F)F)c2)CCN1c1ccc(-c2cn[nH]c2)cc1 (single isomer, unassigned) [Example 231, 1-(4-(1H-pyrazol-4-yl)phenyl)-3-((3-(difluoromethoxy)phenyl)amino) pyrrolidin-2-one]
< 10	O=C1C(Nc2cccc(OC(F)F)c2)CCN1c1ccc(-c2cn[nH]c2)cc1 (single isomer, unassigned) [Example 232, 1-(4-(1H-pyrazol-4-yl)phenyl)-3-((3-(difluoromethoxy)phenyl)amino) pyrrolidin-2-one]
10 to 100	O=C1C(Nc2cccc(OCC3CC3)c2)CCN1c1ccc(-c2cn[nH]c2)cc1 (single isomer, unassigned) [Example 233, 1-(4-(1H-pyrazol-4-yl)phenyl)-3-((3-(cyclopropylmethoxy)phenyl)amino) pyrrolidin-2-one]
< 10	O=C1[C@H](Nc2cccc(OCC3CC3)c2)CCN1c1ccc(-c2cn[nH]c2)cc1 (single isomer, unassigned) [Example 235, 1-(4-(1H-pyrazol-4-yl)phenyl)-3-((3-(cyclopropylmethoxy)phenyl)amino) pyrrolidin-2-one]
< 10	O=C1C(Nc2cccc(OCC(F)F)c2)CCN1c1ccc(-c2cn[nH]c2)cc1 (single isomer, unassigned) [Example 237, 1-(4-(1H-pyrazol-4-yl)phenyl)-3-((3-(2,2-difluoroethoxy)phenyl)amino)pyrrolidin-2-one]
10 to 100	O=C1C(Nc2cccc(OCC(F)F)c2)CCN1c1ccc(-c2cn[nH]c2)cc1 (single isomer, unassigned) [Example 238, 1-(4-(1H-pyrazol-4-yl)phenyl)-3-((3-(2,2-difluoroethoxy)phenyl)amino)pyrrolidin-2-one]
10 to 100	COc1ccc(F)c(NC2CCN(c3ccc(-c4cn[nH]c4)cc3)C2=O)c1 (single isomer, unassigned) [Example 239, 1-(4-(1H-pyrazol-4-yl)phenyl)-3-((2-fluoro-5-methoxyphenyl)amino)pyrrolidin-2-one]
10 to 100	CCc1cc(N2CCC(Nc3ccc(F)c(OC)c3)C2=O)ccc1-c1cn[nH]c1 (single isomer, unassigned) [Example 241, 1-(3-ethyl-4-(1H-pyrazol-4-yl)phenyl)-3-((4-fluoro-3-methoxyphenyl)amino) pyrrolidin-2-one]
10 to 100	CCc1cc(N2CCC(Nc3cccc(OC)c3)C2=O)ccc1-c1cn[nH]c1 (single isomer, unassigned) [Example 243, 1-(3-ethyl-4-(1H-pyrazol-4-yl)phenyl)-3-((3-methoxyphenyl)amino)pyrrolidin-2-one]
< 10	CCc1cc(N2CCC(Nc3cccc(OC)c3)C2=O)ccc1-c1cn[nH]c1 (single isomer, unassigned) [Example 244, 1-(3-ethyl-4-(1H-pyrazol-4-yl)phenyl)-3-((3-methoxyphenyl)amino)pyrrolidin-2-one]
10 to 100	CCc1cc(N2CCC(Nc3cccc(OCC4CC4)c3)C2=O)ccc1-c1cn[nH]c1 (single isomer, unassigned) [Example 247, 3-((3-(cyclopropylmethoxy)phenyl)amino)-1-(3-ethyl-4-(1H-pyrazol-4-yl)phenyl)pyrrolidin-2-one]
100 to 2200	CCc1cc(N2CCC(Nc3cccc(OCC4CC4)c3)C2=O)ccc1-c1cn[nH]c1 (single isomer, unassigned) [Example 248, 3-((3-(cyclopropylmethoxy)phenyl)amino)-1-(3-ethyl-4-(1H-pyrazol-4-yl)phenyl)pyrrolidin-2-one]
10 to 100	CCOc1cccc(NC2CCN(c3ccc(-c4cn[nH]c4)c(OC)c3)C2=O)c1 (single isomer, unassigned) [Example 249, 3-((3-ethoxyphenyl)amino)-1-(3-methoxy-4-(1H-pyrazol-4-yl)phenyl)pyrrolidin-2-one]
< 10	CCOc1cccc(NC2CCN(c3ccc(-c4cn[nH]c4)c(OC)c3)C2=O)c1 (single isomer, unassigned) [Example 250, 3-((3-ethoxyphenyl)amino)-1-(3-methoxy-4-(1H-pyrazol-4-yl)phenyl)pyrrolidin-2-one]
